Laboratory results from patent publication US11780845B2 (Relay Therapeutics, Inc., priority 2019, dated 2023).

Target: FGFR2 (Homo sapiens (Human), UniProt P21802)
Test: FGFR2 Biochemical Caliper Assay
Procedure: Compounds of the present invention were also tested in a FGFR2 Biochemical Caliper Assay. Compounds were prepared in 10 mM DMSO solution and serially diluted into 11 concentrations by 3-fold dilution. […] 5 uL of ATP solution (100 uM) was added to start the reaction and the plate was incubated for 90 minutes, then 70 uL of stopping buffer (0.5M EDTA) was added to terminate the reaction. Each well was analyzed using EZ reader.

FGFR2, sequence (P21802 22-821): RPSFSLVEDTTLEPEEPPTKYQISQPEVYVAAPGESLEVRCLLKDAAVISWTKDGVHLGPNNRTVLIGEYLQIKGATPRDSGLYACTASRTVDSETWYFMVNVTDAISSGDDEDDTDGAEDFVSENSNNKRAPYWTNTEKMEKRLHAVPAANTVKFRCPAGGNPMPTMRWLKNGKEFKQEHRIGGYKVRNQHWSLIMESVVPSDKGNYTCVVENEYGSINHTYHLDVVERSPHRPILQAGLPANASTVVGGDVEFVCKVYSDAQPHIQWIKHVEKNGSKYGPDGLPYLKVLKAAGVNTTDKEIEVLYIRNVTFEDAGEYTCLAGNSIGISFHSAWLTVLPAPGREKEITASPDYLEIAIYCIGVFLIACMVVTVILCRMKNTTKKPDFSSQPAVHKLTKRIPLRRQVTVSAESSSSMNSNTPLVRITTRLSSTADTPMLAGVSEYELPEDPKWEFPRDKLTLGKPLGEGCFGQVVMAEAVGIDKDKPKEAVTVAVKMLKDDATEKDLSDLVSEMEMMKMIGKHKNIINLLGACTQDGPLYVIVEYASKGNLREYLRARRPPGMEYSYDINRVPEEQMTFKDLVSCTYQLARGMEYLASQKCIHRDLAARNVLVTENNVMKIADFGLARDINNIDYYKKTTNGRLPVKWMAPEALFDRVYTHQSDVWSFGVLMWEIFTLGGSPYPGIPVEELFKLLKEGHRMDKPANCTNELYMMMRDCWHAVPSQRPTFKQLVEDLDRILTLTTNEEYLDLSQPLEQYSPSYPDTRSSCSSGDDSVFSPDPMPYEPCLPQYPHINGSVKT

Compound	IC50
C=C(C)C(=O)Nc1ccc(-c2c(-c3ccc(CC(=O)N(C)C)cc3)c3c(N)ncnc3n2C)cc1 [Example 130]	1000 to 100000 nM
C=C(C)C(=O)Nc1ccc(-c2c(-c3ccc(-c4nnn(C)n4)nc3)c3c(N)ncnc3n2C)cc1 [Example 132]	1000 to 100000 nM
C=C(C)C(=O)Nc1ccc(-c2c(C3=CCCN(C(C)=O)C3)c3c(N)ncnc3n2C)cc1 [Example 136]	1000 to 100000 nM
C=C(C)C(=O)Nc1ccc(-c2c(-c3ccc(OCc4ccccc4)nc3)c3c(N)ncnc3n2C)cc1 [Example 138]	1000 to 100000 nM
C=C(C)C(=O)Nc1ccc(-c2c(-c3cc(OC)ncc3OC)c3c(N)ncnc3n2C)cc1 [Example 144]	1000 to 100000 nM
C=C(C)C(=O)Nc1ccc(-c2c(-c3ccc(-c4ncc[nH]4)cc3)c3c(N)ncnc3n2C)cc1 [Example 149]	250 to 1000 nM
C=CC(=O)Nc1ccc(-c2c(-c3cnn(CC4CCNCC4)c3)c3c(N)ncnc3n2C)cc1 [Example 151]	250 to 1000 nM
C=C(C)C(=O)Nc1ccc(-c2c(-c3cc(O)c(Oc4ccccn4)c(Cl)c3)c3c(N)ncnc3n2C)cc1 [Example 162]	250 to 1000 nM
C=C(C)C(=O)Nc1ccc(-c2c(-c3cnn(C4CN(C)C4)c3)c3c(N)ncnc3n2C)cc1 [Example 163]	1000 to 100000 nM
C=C(C)C(=O)Nc1ccc(-c2c(-c3ccc(-n4cc(C)cn4)nc3)c3c(N)ncnc3n2C)cc1 [Example 165]	250 to 1000 nM
C=C(C)C(=O)Nc1ccc(-c2c(C3=CC4CCC(C3)N4)c3c(N)ncnc3n2C)cc1 (stereo not shown) [Example 168]	100 to 250 nM
C=C(C)C(=O)Nc1ccc(-c2c(-c3ccc(-c4nccs4)cc3)c3c(N)ncnc3n2C)cc1 [Example 178]	250 to 1000 nM
C=C(C)C(=O)Nc1ccc(-c2c(-c3cnn(Cc4ccncc4)c3)c3c(N)ncnc3n2C)cc1 [Example 179]	1000 to 100000 nM
C=C(C)C(=O)Nc1ccc(-c2c(-c3ccc(S(C)(=O)=O)cc3C)c3c(N)ncnc3n2C)cc1 [Example 181]	1000 to 100000 nM
C=C(C)C(=O)Nc1ccc(-c2c(-c3ccc(=O)n(Cc4ccccc4)c3)c3c(N)ncnc3n2C)cc1 [Example 182]	1000 to 100000 nM
C=C(C)C(=O)Nc1ccc(-c2c(-c3ccc(-n4cncn4)nc3)c3c(N)ncnc3n2C)cc1 [Example 184]	1000 to 100000 nM

Compound	IC50
C=C(C)C(=O)Nc1ccc(-c2c(-c3ccc(-n4cccn4)nc3)c3c(N)ncnc3n2C)cc1 [Example 192]	1000 to 100000 nM
C=C(C)C(=O)Nc1ccc(-c2c(-c3ccc(CN(C)C(C)=O)cc3)c3c(N)ncnc3n2C)cc1 [Example 198]	1000 to 100000 nM
C=C(C)C(=O)Nc1ccc(-c2c(-c3cc(O)c(Oc4ncccn4)c(CC)c3)c3c(N)ncnc3n2C)cc1 [Example 200]	1000 to 100000 nM
C=C(C)C(=O)Nc1ccc(-c2c(-c3ccc4[nH]c(C(=O)N(C)C)cc4c3)c3c(N)ncnc3n2C)cc1 [Example 205]	1000 to 100000 nM
C=C(C)C(=O)Nc1ccc(-c2c(-c3ccc(Cc4nn[nH]n4)cc3)c3c(N)ncnc3n2C)cc1 [Example 218]	1000 to 100000 nM
C=C(C)C(=O)Nc1ccc(-c2c(-c3cnn(CC4CCNCC4)c3)c3c(N)ncnc3n2C)cc1 [Example 221]	1000 to 100000 nM
C=C(C)C(=O)Nc1ccc(-c2c(-c3ccc(N(C)C(=O)C4CCCC4)cc3)c3c(N)ncnc3n2C)cc1 [Example 222]	1000 to 100000 nM
C=C(C)C(=O)Nc1ccc(-c2c(-c3ccc(Sc4ccccc4)nc3)c3c(N)ncnc3n2C)cc1 [Example 225]	250 to 1000 nM
C=C(C)C(=O)Nc1ccc(-c2c(-c3ccc(C(=O)N4CC[C@H](OC)C4)cc3)c3c(N)ncnc3n2C)cc1 [Example 240]	1000 to 100000 nM
C=C(C)C(=O)Nc1ccc(-c2c(-c3ccc(C(=O)N(C)C4CCOC4)cc3)c3c(N)ncnc3n2C)cc1 (stereo not shown) [Example 247]	1000 to 100000 nM
C=C(C)C(=O)Nc1ccc(-c2c(-c3ccc(C(=O)N4CC[C@@H](OC)C4)cc3)c3c(N)ncnc3n2C)cc1 [Example 252]	250 to 1000 nM
C=C(C)C(=O)Nc1ccc(-c2c(-c3ccc(C(=O)N(C)CCO)cc3)c3c(N)ncnc3n2C)cc1 [Example 254]	250 to 1000 nM
C=C(C)C(=O)Nc1ccc(-c2c(-c3ccc(C(=O)N(C)c4ncccn4)cc3)c3c(N)ncnc3n2C)cc1 [Example 256]	1000 to 100000 nM
C=C(C)C(=O)Nc1ccc(-c2c(-c3ccc(C(=O)N4CC(C5CCOC5)C4)cc3)c3c(N)ncnc3n2C)cc1 (stereo not shown) [Example 261]	1000 to 100000 nM
C=C(C)C(=O)Nc1ccc(-c2c(C3=CCN(C(=O)NC)CC3)c3c(N)ncnc3n2C)cc1 [Example 268]	1000 to 100000 nM
C=C(C)C(=O)Nc1ccc(-c2c(-c3ccc(C(=O)N(C)CC4CCCO4)cc3)c3c(N)ncnc3n2C)cc1 (stereo not shown) [Example 269]	1000 to 100000 nM

Now from value to molecule:

IC50	Compound
1000 to 100000 nM	C=C(C)C(=O)Nc1ccc(-c2c(-c3ccc(N(C)C)nc3)c3c(N)ncnc3n2C)cc1 [Example 131]
100 to 250 nM	C=C(C)C(=O)Nc1ccc(-c2c(-c3ccc(OCC4CC4)cc3)c3c(N)ncnc3n2C)cc1 [Example 133]
1000 to 100000 nM	C=C(C)C(=O)Nc1ccc(-c2c(-c3cncc(CO)c3)c3c(N)ncnc3n2C)cc1 [Example 134]
1000 to 100000 nM	C=C(C)C(=O)Nc1ccc(-c2c(-c3cc(OC)ncc3F)c3c(N)ncnc3n2C)cc1 [Example 139]
1000 to 100000 nM	C=C(C)C(=O)Nc1ccc(-c2c(-c3ccc(C(=O)N4CCC(F)(F)CC4)cc3)c3c(N)ncnc3n2C)cc1 [Example 142]
1000 to 100000 nM	C=C(C)C(=O)Nc1ccc(-c2c(-c3ccc(CN4CC[C@@H](O)C4)cc3)c3c(N)ncnc3n2C)cc1 [Example 146]
1000 to 100000 nM	C=C(C)C(=O)Nc1ccc(-c2c(-c3ccc4c(c3)CCC(=O)N4)c3c(N)ncnc3n2C)cc1 [Example 147]
1000 to 100000 nM	C=C(C)C(=O)Nc1ccc(-c2c(-c3ccn4ccnc4c3)c3c(N)ncnc3n2C)cc1 [Example 153]
1000 to 100000 nM	C=C(C)C(=O)Nc1ccc(-c2c(-c3ccc(Cn4cc(C)cn4)c(F)c3)c3c(N)ncnc3n2C)cc1 [Example 158]
1000 to 100000 nM	C=C(C)C(=O)Nc1ccc(-c2c(-c3ccc(CN4CCC(F)(F)CC4)c(F)c3)c3c(N)ncnc3n2C)cc1 [Example 159]
100 to 250 nM	C=C(C)C(=O)Nc1ccc(-c2c(-c3ccc4cn(C)nc4c3)c3c(N)ncnc3n2C)cc1 [Example 164]
250 to 1000 nM	C=C(C)C(=O)Nc1ccc(-c2c(-c3ccc4c(cnn4C(C)C)c3)c3c(N)ncnc3n2C)cc1 [Example 170]
1000 to 100000 nM	C=C(C)C(=O)Nc1ccc(-c2c(-c3ccc(CN4CCN(C)CC4)cc3)c3c(N)ncnc3n2C)cc1 [Example 172]
1000 to 100000 nM	C=C(C)C(=O)Nc1ccc(-c2c(-c3ccc(CC(=O)N(C)C)c(F)c3)c3c(N)ncnc3n2C)cc1 [Example 173]
< 100 nM	C=C(C)C(=O)Nc1ccc(-c2c(-c3ccc4c(c3)OCCN4C)c3c(N)ncnc3n2C)cc1 [Example 175]
1000 to 100000 nM	C=C(C)C(=O)Nc1ccc(-c2c(-c3ccc(N)c(OC(F)(F)F)c3)c3c(N)ncnc3n2C)cc1 [Example 177]
1000 to 100000 nM	C=C(C)C(=O)Nc1ccc(-c2c(-c3cccc(C(=O)N4CCCC4)c3)c3c(N)ncnc3n2C)cc1 [Example 183]
1000 to 100000 nM	C=C(C)C(=O)Nc1ccc(-c2c(-c3ccc4[nH]c(C(=O)O)cc4c3)c3c(N)ncnc3n2C)cc1 [Example 185]
1000 to 100000 nM	C=C(C)C(=O)Nc1ccc(-c2c(-c3ccc(OC4CCN(C)CC4)nc3)c3c(N)ncnc3n2C)cc1 [Example 187]

IC50	Compound
1000 to 100000 nM	C=C(C)C(=O)Nc1ccc(-c2c(-c3ccc4c(c3)CCC4C(=O)N(C)C)c3c(N)ncnc3n2C)cc1 (stereo not shown) [Example 191]
1000 to 100000 nM	C=C(C)C(=O)Nc1ccc(-c2c(-c3ccc4c(c3)CS(=O)(=O)C4)c3c(N)ncnc3n2C)cc1 [Example 193]
1000 to 100000 nM	C=C(C)C(=O)Nc1ccc(-c2c(-c3ccc(OCC)c(OCC)c3)c3c(N)ncnc3n2C)cc1 [Example 196]
1000 to 100000 nM	C=C(C)C(=O)Nc1ccc(-c2c(-c3ccc4[nH]c(=O)n(C)c4c3)c3c(N)ncnc3n2C)cc1 [Example 203]
1000 to 100000 nM	C=C(C)C(=O)Nc1ccc(-c2c(-c3ccc4c(c3)CC(NC(C)=O)C4)c3c(N)ncnc3n2C)cc1 (stereo not shown) [Example 204]
1000 to 100000 nM	C=C(C)C(=O)Nc1ccc(-c2c(-c3ccc(N4CCCC4=O)nc3)c3c(N)ncnc3n2C)cc1 [Example 208]
1000 to 100000 nM	C=C(C)C(=O)Nc1ccc(-c2c(-c3ccc4c(c3)CN(C)C4=O)c3c(N)ncnc3n2C)cc1 [Example 209]
100 to 250 nM	C=C(C)C(=O)Nc1ccc(-c2c(-c3cnc4c(c3)OCCN4C)c3c(N)ncnc3n2C)cc1 [Example 214]
< 100 nM	C=C(C)C(=O)Nc1ccc(-c2c(-c3ccc(NC(=O)C4CCC4)cc3)c3c(N)ncnc3n2C)cc1 [Example 226]
1000 to 100000 nM	C=C(C)C(=O)Nc1ccc(-c2c(-c3ccc(C(=O)N4CC5(CCC5)C4)cc3)c3c(N)ncnc3n2C)cc1 [Example 231]
250 to 1000 nM	C=C(C)C(=O)Nc1ccc(-c2c(-c3ccc4c(c3)CCN4C(=O)NC)c3c(N)ncnc3n2C)cc1 [Example 232]
1000 to 100000 nM	C=C(C)C(=O)Nc1ccc(-c2c(-c3ccc(C(=O)N4CCC(OC)CC4)cc3)c3c(N)ncnc3n2C)cc1 [Example 242]
1000 to 100000 nM	C=C(C)C(=O)Nc1ccc(-c2c(-c3ccc(C(=O)N4CC5(CCO5)C4)cc3)c3c(N)ncnc3n2C)cc1 [Example 243]
1000 to 100000 nM	C=C(C)C(=O)Nc1ccc(-c2c(-c3ccc4c(c3)CNC4=O)c3c(N)ncnc3n2C)cc1 [Example 250]
250 to 1000 nM	C=C(C)C(=O)Nc1ccc(-c2c(-c3ccc(C(=O)N4CCC(F)CC4)cc3)c3c(N)ncnc3n2C)cc1 [Example 251]
250 to 1000 nM	C=C(C)C(=O)Nc1ccc(-c2c(-c3ccc(OCC4CCCC4)cc3)c3c(N)ncnc3n2C)cc1 [Example 253]
1000 to 100000 nM	C=C(C)C(=O)Nc1ccc(-c2c(-c3ccc(C(=O)N4CC(F)(F)C4)cc3)c3c(N)ncnc3n2C)cc1 [Example 259]
1000 to 100000 nM	C=C(C)C(=O)Nc1ccc(-c2c(-c3ccc(C(=O)N4CCC5(COC5)C4)cc3)c3c(N)ncnc3n2C)cc1 [Example 271]
250 to 1000 nM	C=C(C)C(=O)Nc1ccc(-c2c(-c3ccc(C(=O)N(C)C4CC(F)(F)C4)cc3)c3c(N)ncnc3n2C)cc1 [Example 273]
